# Source: US20240279183A1, “COMPOUNDS AND PHARMACEUTICAL COMPOSITIONS FOR USE IN NEURODEGENERATIVE DISORDERS” (Universiteit Hasselt, priority 2021, published 2024)
# “Also recorded” adds a separate entry of the source.
# Columns and labels:
# [1] = test system: Primary mouse oligodendrocyte precursor cells (OPCs); experiment: OPC differentiation (in vitro), O4 and MBP staining; type: cell-based; settings: for OPC differentiation towards oligodendrocytes: nanomolar ranges
# Procedure: Primary mouse oligodendrocyte precursor cells (OPCs) were isolated from p0 C57bl6 pups using the shake off method at day 0 (FIG. 1). […] Primary OPCs (150,000 cells/condition) were cultured and stimulated with vehicle (0.1% DMSO) or different concentration of RICE (3 nM, 10 nM, 30 nM, 100 nM, 300 nM, 1000 nM) in 0.1% DMSO. Treatment was repeated on day 2 and day 4, applying a 40% medium change. Cells were fixated at day 6 and stained for O4, a late OPC marker, and MBP, an oligodendrocyte marker. […] The increased expression of O4 declined from 100 nM RICE onwards.
# [2] = test system: Male wild type C57bl6 mice fed cuprizone; experiment: Visual evoked potentials after cuprizone diet (in vivo); set-up: species or system mouse; settings: 0.1 mg/kg or 0.3 mg/kg subcutaneous twice a day, remyelination phase, compared to vehicle
# Procedure: Male wild type C57bl6 mice were fed regular chow (n=6) or 0.3% (w/w)cuprizone (n=21) for 6 weeks to […]. Afterwards, cuprizone was removed and recovery was allowed. Two days before ceasing the cuprizone diet, until the end of the experiment, animals received twice a day subcutaneous injections consisting of 0.1% DMSO in 0.5% methylcellulose solution with either vehicle (no cuprizone and vehicle group; n=6 and n=8 respectively), 0.1 mg/kg RICE (n=7) or 0.3 mg/kg RICE (n=6) (FIG. 3). […] After either three or four days after ceasing the cuprizone diet, visual evoked potential were measured to evaluate optic tract and nerve signaling (groups equally divided over testing days). Epidermal VEP was recorded in response to flash stimulation (3 trains of 20 stimuli, 10 us duration, 1 Hz frequency) from both eyes. […] A one-way ANOVA with Kruskall Wallis multiple comparison test was conducted to evaluate statistical significances (*p≤0.05; **p<0.01, ****p<0.001).
# [3] = test system: Mouse cerebellar brain slices; experiment: Myelination in lysolecithin-demyelinated brain slices (ex vivo); type: cell-based; settings: 1 μM, 10 days
# Procedure: Mouse cerebellar brain slices (350 μm) were made from the cerebellum of p10 C57bl6 pups. After 4 days in culture, slices were demyelinated using 0.5 mg/ml lysolecithin (18 h) and subsequently treated for 10 days with 1 μM RICE (in 0.1% DMSO) (FIG. 2).
# [4] = test system: young adult C57BL/6J-OlaHsd mice; experiment: Object location task (OLT), 24h intertrial interval; type: in vivo, mouse
# Procedure: Mice received a subcutaneous injection with vehicle (0.1% DMSO in 2% Tween80 and 0.5% methylcellulose), roflumilast 0.03 mg/kg as a positive control, or RICE01 (0.00003 mg/kg-0.3 mg/kg) 3h after the first learning trial of the 24h interval OLT.
compound,measurement,setting,value
Oc1cc(-c2ccn(CC(O)CN3CCOCC3)n2)ccc1OC(F)F (stereo not shown) [RICE01],MBP expression (oligodendrocyte marker),"[1]; 3-1000 nM, day 6",dose dependently increased
same,O4 expression (late OPC marker),"[1]; 3-1000 nM, treatment day 0, 2, 4, fixated day 6",increased with the lower concentrations
same,concentration from which the increased expression of O4 declined,[1]; day 6,≥ 100 nM
same,concentration of maximal MBP expression,[1]; day 6,30 nM
same,concentration of maximal O4 expression increase,[1]; day 6,10 nM
same,OPC differentiation towards oligodendrocytes,[1],induces OPC differentiation and myelin production
same,OPC differentiation towards oligodendrocytes,[1]; listed as RICE,boosts OPC differentiation towards oligodendrocytes; also recorded: boosted OPC differentiation; also recorded: stimulated the differentiation of oligodendrocytes
same,visual evoked potential latency,[2],decreased latency times
same,(re)myelination (myelination index / MBP expression),[3],improved (re)myelination
same,D2 value versus zero (one-sample t-test),[4]; 0.00003 mg/kg subcutaneous,significantly higher than zero
same,D2 value versus zero (one-sample t-test),[4]; 0.0001 mg/kg subcutaneous,significantly higher than zero
same,d2 index compared with vehicle treatment (Dunnett's),[4]; 0.0001 mg/kg subcutaneous,significantly higher d2 index
same,D2 value versus zero (one-sample t-test),[4]; 0.0003 mg/kg subcutaneous,significantly higher than zero
same,D2 value versus zero (one-sample t-test),[4]; 0.001 mg/kg subcutaneous,significantly higher than zero
same,D2 value versus zero (one-sample t-test),[4]; 0.01 mg/kg subcutaneous,significantly higher than zero
same,D2 value versus zero (one-sample t-test),[4]; 0.03 mg/kg subcutaneous,significantly higher than zero
same,D2 value versus zero (one-sample t-test),[4]; 0.1 mg/kg subcutaneous,significantly higher than zero
same,d2 index compared with vehicle treatment (Dunnett's),[4]; 0.1 mg/kg subcutaneous,significantly higher d2 index
same,discrimination index (D2) in the object location task,"[4]; subcutaneous, 0.00003 mg/kg-0.3 mg/kg, 3h after first learning trial",increases
